Values quoted from earlier work, collected in patent US20240252489A1, “REPEATED ADMINISTRATION OF DIHYDROERGOTAMINE FOR TREATMENT OF FREQUENT MIGRAINE HEADACHES” (Woodward Specialty LLC, priority 2020, published 2024).

Test system: patients with frequent migraine headaches
Settings: 15 min after administration; reported in the literature

N[C@@H]1c2cccnc2[C@H](OC(=O)N2CCC(n3c(=O)[nH]c4ncccc43)CC2)CC[C@H]1c1cccc(F)c1F [Rimegepant]
subjects having pain relief: 8%
